Experimental data taken from patent publication US8318759B2, “Pyrrolidine derivatives as NK3 receptor antagonists” (Hoffmann-La Roche Inc., priority 2009, dated 2012).

biological target: T1, human NK3 receptor (Homo sapiens, UniProt P29371); test: [3H]SR142801 competition binding assay; settings: membrane from HEK293 cells transiently expressing recombinant human NK3 receptor; radioligand [3H]SR142801; Ki from IC50 by Cheng-Prussoff equation
T1 construct: expressed in transfected cells; host or cells: HEK293 cells (transient expression), membranes
T1 sequence (P29371 1-465): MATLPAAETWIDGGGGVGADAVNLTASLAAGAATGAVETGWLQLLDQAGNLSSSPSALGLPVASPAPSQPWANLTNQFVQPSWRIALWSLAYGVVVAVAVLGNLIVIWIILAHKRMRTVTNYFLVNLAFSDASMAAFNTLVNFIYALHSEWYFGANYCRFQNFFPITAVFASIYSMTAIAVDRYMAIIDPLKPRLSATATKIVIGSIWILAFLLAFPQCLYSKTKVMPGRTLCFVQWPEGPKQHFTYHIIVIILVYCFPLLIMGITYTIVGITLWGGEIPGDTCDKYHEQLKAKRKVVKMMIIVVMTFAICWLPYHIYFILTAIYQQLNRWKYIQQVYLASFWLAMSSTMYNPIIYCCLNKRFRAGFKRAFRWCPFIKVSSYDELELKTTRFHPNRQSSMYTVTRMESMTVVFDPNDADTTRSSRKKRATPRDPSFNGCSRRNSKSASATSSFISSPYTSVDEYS
Method: [^3H]SR142801 Competition Binding Assay
hNK3 receptor binding experiment were performed using [^3H]SR142801 (Catalog No. TRK1035, specific activity: 74.0 Ci/mmol, Amersham, GE Healthcare UK limited, Buckinghamshire, UK) and membrane isolated from HEK293 cells transiently expressing recombinant human NK3 receptor. After thawing, the membrane homogenates were centrifuged at 48,000×g for 10 min at 4° C., the pellets were resuspended in the 50 mM Tris-HCl, 4 mM MnCl2, 1 μM phosphoramidon, 0.1% BSA binding buffer at pH 7.4 to a final assay concentration of 5 μg protein/well. […] At the end of the incubation, membranes were filtered onto unitfilter (96-well white microplate with bonded GF/C filter preincubated 1 h in 0.3% PEI+0.3% BSA, Packard BioScience, Meriden, Conn.) with a Filtermate 196 harvester (Packard BioScience) and washed 4 times with ice-cold 50 mM Tris-HCl, pH 7.4 buffer. Nonspecific binding was measured in the presence of 10 μM SB222200 for both radioligands. The radioactivity on the filter was counted (5 min) on a Packard Top-count microplate scintillation counter with quenching correction after addition of 45 μl of microscint 40 (Canberra Packard S. A., Zürich, Switzerland) and shaking for 1 h. Inhibition curves were fitted according to the Hill equation: y=100/(1+(x/IC50)^nH), where nH=slope factor using Excel-fit 4 software (Microsoft). IC50 values were derived from the inhibition curve and the affinity constant (Ki) values were calculated using the Cheng-Prussoff equation Ki=IC50/(1+[L]/KD) where [L] is the concentration of radioligand and KD is its dissociation constant at the receptor, derived from the saturation isotherm. All experiments were performed in duplicate and the mean±standard error (SEM) of the individual Ki values was calculated.

`CS(=O)(=O)N1CCN(C(=O)N2C[C@H](CSc3ccc(C(F)(F)F)cc3)[C@@H](c3ccc(Cl)c(Cl)c3)C2)CC1` (racemic) [Example 1, (3SR,4RS)-[3-(3,4-Dichloro-phenyl)-4-(4-trifluoromethyl-phenylsulfanylmethyl)-pyrrolidin-1-yl]-(4-methanesulfonyl-piperazin-1-yl)-methanone] and `CS(=O)(=O)N1CCN(C(=O)N2C[C@H](CSc3ccc(Cl)cc3)[C@@H](c3ccc(Cl)c(Cl)c3)C2)CC1` (racemic) [Example 2] are within 1.5-fold of each other in Ki: 0.0496 µM for the first, 0.0459 µM for the second.

`CS(=O)(=O)N1CCN(C(=O)N2C[C@H](CSc3ccc(C#N)cc3)[C@@H](c3ccc(Cl)c(Cl)c3)C2)CC1` (racemic) [Example 4, (3SR,4RS)-4-[4-(3,4-Dichloro-phenyl)-1-(4-methanesulfonyl-piperazine-1-carbonyl)-pyrrolidin-3-ylmethylsulfanyl]-benzonitrile] and `CS(=O)(=O)N1CCN(C(=O)N2C[C@H](CNc3ccc(C#N)cn3)[C@@H](c3ccc(Cl)c(Cl)c3)C2)CC1` [Example 8] are within 1.5-fold of each other in Ki: 0.0617 µM for the first, 0.0711 µM for the second.

`CS(=O)(=O)N1CCN(C(=O)N2C[C@H](CSc3ccc(C(F)(F)F)cn3)[C@@H](c3ccc(Cl)c(Cl)c3)C2)CC1` (racemic) [Example 5, (3SR,4RS)-[3-(3,4-Dichloro-phenyl)-4-(5-trifluoromethyl-pyridin-2-ylsulfanylmethyl)-pyrrolidin-1-yl]-(4-methanesulfonyl-piperazin-1-yl)-methanone] and `CS(=O)(=O)N1CCN(C(=O)N2C[C@H](CSc3ccc(Cl)cn3)[C@@H](c3ccc(Cl)c(Cl)c3)C2)CC1` (racemic) [Example 6, (3SR,4RS)-[3-(5-Chloro-pyridin-2-ylsulfanylmethyl)-4-(3,4-dichloro-phenyl)-pyrrolidin-1-yl]-(4-methanesulfonyl-piperazin-1-yl)-methanone] are within 1.5-fold of each other in Ki: 0.0024 µM for the first, 0.0022 µM for the second.

First: CS(=O)(=O)N1CCN(C(=O)N2CC(CNc3ccc(C(F)(F)F)cn3)C(c3ccc(Cl)c(Cl)c3)C2)CC1 (racemic) [Example 12, (3SR,4RS)-{3-(3,4-Dichloro-phenyl)-4-[(5-trifluoromethyl-pyridin-2-ylamino)-methyl]-pyrrolidin-1-yl}-(4-methanesulfonyl-piperazin-1-yl)-methanone]
Second: CS(=O)(=O)N1CCN(C(=O)N2C[C@H](CNc3ccc(Cl)cn3)[C@@H](c3ccc(Cl)c(Cl)c3)C2)CC1 (racemic) [Example 30]
The Ki of the first is 1.8-fold lower: 0.02 µM for the first, 0.0361 µM for the second. The first binds more tightly here.

`CN(C[C@H]1CN(C(=O)N2CCN(S(C)(=O)=O)CC2)C[C@@H]1c1ccc(Cl)c(Cl)c1)c1ccc(C(F)(F)F)cn1` (racemic) [Example 15] and `CC(Nc1ccc(C(F)(F)F)cn1)[C@H]1CN(C(=O)N2CCN(S(C)(=O)=O)CC2)C[C@@H]1c1ccc(Cl)c(Cl)c1` (mixture of isomers) [Example 37, (3SR,4RS) {3-(3,4-Dichloro-phenyl)-4-[1-(RS)-(5-trifluoromethyl-pyridin-2-ylamino)-ethyl]-pyrrolidin-1-yl}-(4-methanesulfonyl-piperazin-1-yl)-methanone and (3SR,4RS) {3-(3,4-Dichloro-phenyl)-4-[1-(SR)-(5-trifluoromethyl-pyridin-2-ylamino)-ethyl]-pyrrolidin-1-yl}-(4-methanesulfonyl-piperazin-1-yl)-methanone] are within 1.5-fold of each other in Ki: 0.0788 µM for the first, 0.0549 µM for the second.

Compared with `N#Cc1ccc(C(=O)N2CC(CNc3ccc(C(F)(F)F)cn3)C(c3ccc(Cl)c(Cl)c3)C2)cn1` (racemic) [Example 17, (3SR,4RS)-5-{3-(3,4-Dichloro-phenyl)-4-[(5-trifluoromethyl-pyridin-2-ylamino)-methyl]-pyrrolidine-1-carbonyl}-pyridine-2-carbonitrile], `O=C(c1ccnnc1)N1C[C@H](CNc2ccc(C(F)(F)F)cn2)[C@@H](c2ccc(Cl)c(Cl)c2)C1` (racemic) [Example 22] is 10-fold higher in Ki: 0.0096 µM for the first, 0.0986 µM for the second. The first binds more tightly here.

`CC(=O)N1CCC(C(=O)N2C[C@H](CNc3ccc(C(F)(F)F)cn3)[C@@H](c3ccc(Cl)c(Cl)c3)C2)CC1` (racemic) [Example 19] and `CC1(C(=O)N2CCC(C(=O)N3C[C@H](CNc4ccc(C(F)(F)F)cn4)[C@@H](c4ccc(Cl)c(Cl)c4)C3)CC2)CC1` (racemic) [Example 21] are within 1.5-fold of each other in Ki: 0.0103 µM for the first, 0.0089 µM for the second.

`Cc1cc(C(=O)N2C[C@H](CNc3ccc(C(F)(F)F)cn3)[C@@H](c3ccc(Cl)c(Cl)c3)C2)cnn1` (racemic) [Example 20] and `Cc1cc(C(=O)N2C[C@H](CNc3ncc(C(F)(F)F)cn3)[C@@H](c3ccc(Cl)c(Cl)c3)C2)cnn1` (racemic) [Example 35] are within 1.5-fold of each other in Ki: 0.011 µM for the first, 0.009 µM for the second.

Going from `Cc1cc(C(=O)N2C[C@H](CNc3ccc(C(F)(F)F)cn3)[C@@H](c3ccc(Cl)c(Cl)c3)C2)c(C)nn1` (racemic) [Example 23] to `Cc1cc(C(=O)N2C[C@H](CNc3ncc(Cl)cn3)[C@@H](c3ccc(Cl)c(Cl)c3)C2)cnn1` (racemic) [Example 27], the Ki rises from 0.0109 µM to 0.0247 µM (2.3-fold).

`CC1(C(=O)N2CCC(C(=O)N3C[C@H](CNc4ncc(Cl)cn4)[C@@H](c4ccc(Cl)c(Cl)c4)C3)CC2)CC1` (racemic) [Example 24] and `CC(=O)N1CCC(C(=O)N2C[C@H](CNc3ncc(Cl)cn3)[C@@H](c3ccc(Cl)c(Cl)c3)C2)CC1` (racemic) [Example 25] are within 1.5-fold of each other in Ki: 0.0165 µM for the first, 0.0195 µM for the second.

Compared with `N#Cc1ccc(C(=O)N2C[C@H](CNc3ncc(Cl)cn3)[C@@H](c3ccc(Cl)c(Cl)c3)C2)cn1` (racemic) [Example 26], `CS(=O)(=O)N1CCN(C(=O)N2CC(CNc3ncc(C#N)cn3)C(c3ccc(Cl)c(Cl)c3)C2)CC1` (racemic) [Example 31, (3SR,4RS)-2-{[4-(3,4-Dichloro-phenyl)-1-(4-methanesulfonyl-piperazine-1-carbonyl)-pyrrolidin-3-ylmethyl]-amino}-pyrimidine-5-carbonitrile] is 1.7-fold higher in Ki: 0.0463 µM for the first, 0.08 µM for the second. The first binds more tightly here.

First: CS(=O)(=O)N1CCN(C(=O)N2C[C@H](CNc3ccc(C(F)(F)F)cc3)[C@@H](c3ccc(Cl)c(Cl)c3)C2)CC1 (racemic) [Example 28]
Second: C[C@@H](Nc1ccc(C(F)(F)F)cn1)[C@H]1CN(C(=O)N2CCN(S(C)(=O)=O)CC2)C[C@@H]1c1ccc(Cl)c(Cl)c1 (racemic) [Example 38, (3SR,4RS) {3-(3,4-Dichloro-phenyl)-4-[1-(RS)-(5-trifluoromethyl-pyridin-2-ylamino)-ethyl]-pyrrolidin-1-yl}-(4-methanesulfonyl-piperazin-1-yl)-methanone]
The Ki of the first is 2.6-fold higher: 0.0585 µM for the first, 0.0223 µM for the second.

`CC(=O)N1CCC(C(=O)N2C[C@H](CNc3ncc(C(F)(F)F)cn3)[C@@H](c3ccc(Cl)c(Cl)c3)C2)CC1` (racemic) [Example 33] and `CC1(C(=O)N2CCC(C(=O)N3C[C@H](CNc4ncc(C(F)(F)F)cn4)[C@@H](c4ccc(Cl)c(Cl)c4)C3)CC2)CC1` (racemic) [Example 34] are within 1.5-fold of each other in Ki: 0.0075 µM for the first, 0.0062 µM for the second.

`CC(Nc1ccc(C#N)cn1)[C@H]1CN(C(=O)N2CCN(S(C)(=O)=O)CC2)C[C@@H]1c1ccc(Cl)c(Cl)c1` (mixture of isomers) [Example 36, (3SR,4RS) 6-{1-(RS)-[4-(3,4-Dichloro-phenyl)-1-(4-methanesulfonyl-piperazine-1-carbonyl)-pyrrolidin-3-yl]-ethylamino}-nicotinonitrile and (3SR,4RS) 6-{1-(SR)-[4-(3,4-Dichloro-phenyl)-1-(4-methanesulfonyl-piperazine-1-carbonyl)-pyrrolidin-3-yl]-ethylamino}-nicotinonitrile] and `CC1(C(=O)N2CCC(C(=O)N3CC(CNc4ccc(Cl)cn4)C(c4ccc(Cl)cc4)C3)CC2)CC1` (racemic) [Example 41, (3SR,4RS) {3-(4-Chloro-phenyl)-4-[(5-chloro-pyridin-2-ylamino)-methyl]-pyrrolidin-1-yl}-[1-(1-methyl-cyclopropanecarbonyl)-piperidin-4-yl]-methanone] are within 1.5-fold of each other in Ki: 0.0682 µM for the first, 0.0863 µM for the second.

First: CC1(C(=O)N2CCC(C(=O)N3C[C@H](CNc4ncc(C(F)(F)F)cn4)[C@@H](c4ccc(F)cc4)C3)CC2)CC1 (racemic) [Example 46]
Second: CN(C[C@H]1CN(C(=O)C2CCN(C(=O)C3(C)CC3)CC2)C[C@@H]1c1ccc(F)cc1)c1ncc(C(F)(F)F)cn1 (racemic) [Example 47]
The Ki of the first is 3.1-fold lower: 0.0228 µM for the first, 0.0716 µM for the second.
